In patent publication US6358885B1, “Substituted phenylheterocyclic herbicides” (Mississippi State University, priority 1992, dated 2002):

Key:
[1] = test system: Japonica rice; assay: Test D paddy water application plant response rating 0 to 100; assay type: in vivo, Oryza sativa; conditions: 0 to 100 scale, approx. 21 days
Procedure, shortened: (§1)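 Silt loam, saturated; flood 3 cm kept throughout. Compound in non-phytotoxic solvent dosed into paddy water.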

[2] = test system: barnyardgrass; assay: as above; assay type: in vivo, Echinochloa crus-galli; conditions: 0 to 100 scale, approx. 21 days
Procedure, shortened: as §1

[3] = test system: duck salad; assay: as above; assay type: in vivo, Heteranthera limosa; conditions: 0 to 100 scale, approx. 21 days
Procedure, shortened: as §1

[4] = test system: umbrella sedge; assay: as above; assay type: in vivo, Cyperus difformis; conditions: 0 to 100 scale, approx. 21 days
Procedure, shortened: as §1

[5] = test system: arrowhead; assay: as above; assay type: in vivo, Sagittaria spp.; conditions: 0 to 100 scale, approx. 21 days
Procedure, shortened: as §1

[6] = test system: waterchestnut; assay: as above; assay type: in vivo, Eleocharis spp.; conditions: 0 to 100 scale, approx. 21 days
Procedure, shortened: as §1

[7] = test system: Japonica rice; assay: Test E paddy water application plant response rating 0 to 100; assay type: in vivo, oryza sativa; conditions: Flood, 0 to 100 scale, approx. 21 days
Procedure, shortened: (§2)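 Greenhouse paddy test: flooded pots of silt loam (water 2 cm over soil) received the solvent-formulated chemical directly in the water.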

[8] = test system: barnyardgrass; assay: as above; assay type: in vivo, Echinochloa crus-galli; conditions: Flood, 0 to 100 scale, approx. 21 days
Procedure, shortened: as §2

[9] = test system: field violet; assay: Test F preemergence/postemergence greenhouse plant response rating 0 to 100; assay type: in vivo, Viola arvensis; conditions: POSTEMERGENCE, 0 to 100 scale
Procedure, shortened: (§3)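 Pre: sandy loam, spray ~1 day after seeding. Post: 1–4 leaf plants, 60:40 sandy loam/potting mix; blackgrass treated at two growth stages. Formulated in non-phytotoxic solvent. Visual rating vs untreated controls at ~21–28 d.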

[10] = test system: green foxtail; assay: as above; assay type: in vivo, Setaria viridis; conditions: POSTEMERGENCE, 0 to 100 scale
Procedure, shortened: as §3

[11] = test system: rape; assay: as above; assay type: in vivo, Brassica napus; conditions: POSTEMERGENCE, 0 to 100 scale
Procedure, shortened: as §3

[12] = test system: ryegrass; assay: as above; assay type: in vivo, Lolium multiflorum; conditions: POSTEMERGENCE, 0 to 100 scale
Procedure, shortened: as §3

[13] = test system: sugar beet; assay: as above; assay type: in vivo, Beta vulgaris cv. ‘USl’; conditions: POSTEMERGENCE, 0 to 100 scale
Procedure, shortened: as §3

[14] = test system: sunflower; assay: as above; assay type: in vivo, Helianthus annuus cv. ‘Russian Giant’; conditions: POSTEMERGENCE, 0 to 100 scale
Procedure, shortened: as §3

Fc1cc(Cl)c(OCCCl)cc1-c1nn2c(c1Cl)CCCC2 [Compound 49]
30: Barnyardgrass 2 plant response rating ([2]; Rate 16 g/ha) | Japonica 2 plant response rating ([7]; Rate 32 g/ha) | Japonica 2 plant response rating ([7]; Rate 64 g/ha)
10: Japonica rice plant response rating ([1]; Rate 4 g/ha) | Japonica rice plant response rating ([1]; Rate 8 g/ha) | Japonica rice plant response rating ([1]; Rate 16 g/ha) | Duck salad plant response rating ([3]; Rate 64 g/ha) | Waterchestnut plant response rating ([6]; Rate 32 g/ha)
15: Japonica rice plant response rating ([1]; Rate 32 g/ha)
90: Barnyardgrass 2 plant response rating ([8]; Rate 32 g/ha)
25: Japonica 1 plant response rating ([7]; Rate 64 g/ha) | Barnyardgrass 2 plant response rating ([8]; Rate 8 g/ha)
45: Barnyardgrass 2 plant response rating ([8]; Rate 16 g/ha) | Barnyardgrass 3 plant response rating ([8]; Rate 16 g/ha)
70: Barnyardgrass 2 plant response rating ([2]; Rate 32 g/ha) | Barnyardgrass 3 plant response rating ([8]; Rate 64 g/ha) | Sugar beet plant response rating ([13]; Rate 2 g/ha)
35: Barnyardgrass 3 plant response rating ([8]; Rate 8 g/ha)
60: Field violet plant response rating ([9]; Rate 8 g/ha) | Field violet plant response rating ([9]; Rate 16 g/ha) | Green foxtail plant response rating ([10]; Rate 32 g/ha)
100: Barnyardgrass 2 plant response rating ([2]; Rate 64 g/ha) | Barnyardgrass 2 plant response rating ([8]; Rate 64 g/ha) | Field violet plant response rating ([9]; Rate 32 g/ha) | Sugar beet plant response rating ([13]; Rate 4 g/ha) | Sugar beet plant response rating ([13]; Rate 8 g/ha) | Sugar beet plant response rating ([13]; Rate 32 g/ha)
0: Barnyardgrass 2 plant response rating ([2]; Rate 4 g/ha) | Duck salad plant response rating ([3]; Rate 4 g/ha) | Duck salad plant response rating ([3]; Rate 8 g/ha) | Duck salad plant response rating ([3]; Rate 16 g/ha) | Duck salad plant response rating ([3]; Rate 32 g/ha) | Umbrella sedge plant response rating ([4]; Rate 4 g/ha) | Umbrella sedge plant response rating ([4]; Rate 8 g/ha) | Umbrella sedge plant response rating ([4]; Rate 16 g/ha) | Umbrella sedge plant response rating ([4]; Rate 32 g/ha) | Arrowhead plant response rating ([5]; Rate 4 g/ha) | Arrowhead plant response rating ([5]; Rate 8 g/ha) | Arrowhead plant response rating ([5]; Rate 16 g/ha) | Arrowhead plant response rating ([5]; Rate 64 g/ha) | Waterchestnut plant response rating ([6]; Rate 4 g/ha) | Waterchestnut plant response rating ([6]; Rate 8 g/ha) | Waterchestnut plant response rating ([6]; Rate 16 g/ha) | Japonica 1 plant response rating ([7]; Rate 8 g/ha) | Japonica 2 plant response rating ([7]; Rate 8 g/ha) | Japonica 1 plant response rating ([7]; Rate 16 g/ha) | Japonica 1 plant response rating ([7]; Rate 32 g/ha) | Green foxtail plant response rating ([10]; Rate 2 g/ha) | Green foxtail plant response rating ([10]; Rate 4 g/ha) | Rape plant response rating ([11]; Rate 2 g/ha) | Rape plant response rating ([11]; Rate 4 g/ha) | Rape plant response rating ([11]; Rate 8 g/ha) | Rape plant response rating ([11]; Rate 16 g/ha) | Ryegrass plant response rating ([12]; Rate 2 g/ha) | Ryegrass plant response rating ([12]; Rate 4 g/ha) | Ryegrass plant response rating ([12]; Rate 8 g/ha) | Ryegrass plant response rating ([12]; Rate 16 g/ha) | Sunflower plant response rating ([14]; Rate 2 g/ha) | Sunflower plant response rating ([14]; Rate 4 g/ha) | Sunflower plant response rating ([14]; Rate 8 g/ha) | Sunflower plant response rating ([14]; Rate 16 g/ha) | Sunflower plant response rating ([14]; Rate 32 g/ha)
50: Umbrella sedge plant response rating ([4]; Rate 64 g/ha) | Green foxtail plant response rating ([10]; Rate 16 g/ha)
55: Barnyardgrass 3 plant response rating ([8]; Rate 32 g/ha)
20: Japonica rice plant response rating ([1]; Rate 64 g/ha) | Barnyardgrass 2 plant response rating ([2]; Rate 8 g/ha) | Waterchestnut plant response rating ([6]; Rate 64 g/ha) | Japonica 2 plant response rating ([7]; Rate 16 g/ha) | Green foxtail plant response rating ([10]; Rate 8 g/ha) | Rape plant response rating ([11]; Rate 32 g/ha) | Ryegrass plant response rating ([12]; Rate 32 g/ha)
